Measurements taken from US20260256792A1, “TREATMENT OF CHRONIC SPONTANEOUS URTICARIA BY ADMINISTERING (R)-2-[3-[4-AMINO-3-(2-FLUORO-4-PHENOXY-PHENYL)PYRAZOLO[3,4-D]PYRIMIDIN-1-YL]PIPERIDINE-1-CARBONYL]-4-METHYL-4-[4-(OXETAN-3-YL)PIPERAZIN-1-YL]PENT-2-ENENITRILE” (priority 2023, published 2026).

Tested on: moderate-to-severe chronic spontaneous urticaria (CSU)
Assay: Phase 2 CSU study: hives severity score over 7 days (HSS7)
Type: in vivo, human
Design: key to HSS7 Change from baseline, Median / HSS7, Median / HSS7, Max / HSS7 Change from baseline, Q1 / HSS7 Change from baseline, Q3 / HSS7 Change from baseline, Max: 7-day sum of daily hive scores, each 0 = none to 3 = >50 hives
Details: for median reduction in HSS7 at Week 12: omalizumab-naïve population; for HSS7, Mean (SD) / HSS7, Median: End of Study; for HSS7 change from baseline at Week 12, LS Mean / HSS7 change from baseline at Week 12, LS Mean Diff vs. placebo: ANCOVA
From the text: The study comprises a 12 week, randomized, double-blind, placebo-controlled, multi-center, dose-ranging efficacy and safety phase, followed by a 40 week open label extension (OLE) phase (see FIG. 1).
The study consists of three phases and an optional OLE phase.
The UAS is a validated PRO measure. The daily UAS is the sum of the daily Hive Severity Score (HSS, ranging from 0=None to 3=more than 50 hives) and the daily Itch Severity Score (ISS, ranging from 0=None to 3=intense), the 2 key urticaria signs and symptoms which are wheals and itch. The daily UAS scores range from 0 to 6 point/day. Daily UAS scores are summed over 7-day period to create the UAS7, ranging from 0 to 42, and are composed of the HSS7 and ISS7 components. […] Patients were to complete the UAS using the e-diary. The e-diary was to be used once daily on the same time of each day recording of participant's answers to the urticaria activity score over 7 days (UAS7) questionnaire. For participants who entered the OLE phase, their answers to the UAS7 questionnaire were also to be collected from Week 20 to Week24 and from Week 48 to Week 52.
The following secondary endpoints were to be analyzed using the same approach as for the primary endpoint: • Change from baseline in UAS7 at Week 4 • Change from baseline in UAS7 at Week 12 (for US and US reference countries) • Change from baseline in ISS7 at Week 12 (except US and US reference countries) • Change from baseline in HSS7 at Week 12

[1] = 400 mg TID, Week 9, ITT Population
[2] = 400 mg TID, Week 9, Omalizumab-Naïve Population
[3] = 400 mg TID, Week 10, ITT Population
[4] = 400 mg TID, Week 11, ITT Population
[5] = 400 mg TID, Week 12, ITT population
[6] = 400 mg TID, patients with prior omalizumab use, last block under Week 12, double-blind period, WOCF imputation
[7] = 400 mg BID, Omalizumab-Naïve Population
[8] = 400 mg QPM, Omalizumab-Naïve Population
[9] = 400 mg TID, Patients with Prior Omalizumab Use
[10] = Omalizumab-Naïve Population with Outlier Removed from Analysis, 400 mg BID
[11] = Omalizumab-Naïve Population with Outlier Removed from Analysis, 400 mg QPM
[12] = Omalizumab-Naïve Population with Outlier Removed from Analysis, 400 mg TID
[13] = Omalizumab-naïve Population, 400 mg BID
[14] = Omalizumab-naïve Population, 400 mg QPM
[15] = Omalizumab-naïve Population, 400 mg TID

CC(C)(C=C(C#N)C(=O)N1CCC[C@@H](n2nc(-c3ccc(Oc4ccccc4)cc3F)c3c(N)ncnc32)C1)N1CCN(C2COC2)CC1 [rilzabrutinib, (R)-2-[3-[4-amino-3-(2-fluoro-4-phenoxy-phenyl)pyrazolo[3,4-d]pyrimidin-1-yl]piperidine-1-carbonyl]-4-methyl-4-[4-(oxetan-3-yl)piperazin-1-yl]pent-2-enenitrile]
HSS7 Postbaseline Mean (SD) (400 mg TID, Week 8, Omalizumab-Naïve Population): 6.12 (4.80)
HSS7 Postbaseline Mean (SD) (400 mg TID, Week 8, Omalizumab-Naïve Population with Outlier Removed from Analysis): 6.12 (4.80)
HSS7 % Change difference for rilzabrutinib vs.placebo LS Mean (95% CI) [1]: −29.14 %
HSS7 % Change from baseline LS Mean (SE) [1]: −53.06 (6.70) %
HSS7 Change difference for rilzabrutinib vs.placebo LS Mean (95% CI) [1]: −3.67 (−6.21, −1.13)
HSS7 Change from baseline LS Mean (SE) [1]: −7.79 (0.94)
HSS7 Postbaseline Mean (SD) [1]: 5.43 (4.93)
HSS7 % Change difference for rilzabrutinib vs.placebo LS Mean (95% CI) [2]: −27.94 %
HSS7 Postbaseline Mean (SD) [2]: 5.88 (4.98)
HSS7 Postbaseline Mean (SD) (400 mg TID, Week 9, Omalizumab-Naïve Population with Outlier Removed from Analysis): 5.88 (4.98)
HSS7 % Change difference for rilzabrutinib vs.placebo LS Mean (95% CI) [3]: −28.54 %
HSS7 % Change from baseline LS Mean (SE) [3]: −56.54 (6.68) %
HSS7 Change difference for rilzabrutinib vs.placebo LS Mean (95% CI) [3]: −3.55 (−6.13, −0.97)
HSS7 Change from baseline LS Mean (SE) [3]: −8.15 (0.96)
HSS7 Postbaseline Mean (SD) [3]: 5.39 (5.05)
HSS7 Postbaseline Mean (SD) (400 mg TID, Week 10, Omalizumab-Naïve Population): 5.87 (5.06)
HSS7 Postbaseline Mean (SD) (400 mg TID, Week 10, Omalizumab-Naïve Population with Outlier Removed from Analysis): 5.87 (5.06)
HSS7 % Change difference for rilzabrutinib vs.placebo LS Mean (95% CI) [4]: −28.42 %
HSS7 % Change from baseline LS Mean (SE) [4]: −54.96 (6.95) %
HSS7 Change difference for rilzabrutinib vs.placebo LS Mean (95% CI) [4]: −3.55 (−6.14, −0.95)
HSS7 Change from baseline LS Mean (SE) [4]: −8.09 (0.96)
HSS7 Postbaseline Mean (SD) [4]: 5.60 (5.41)
HSS7 Postbaseline Mean (SD) (400 mg TID, Week 11, Omalizumab-Naïve Population): 6.17 (5.40)
HSS7 Postbaseline Mean (SD) (400 mg TID, Week 11, Omalizumab-Naïve Population with Outlier Removed from Analysis): 6.17 (5.40)
HSS7 % Change difference for rilzabrutinib vs.placebo LS Mean (95% CI) [5]: −29.54 %
HSS7 % Change from baseline LS Mean (SE) [5]: −57.27 (7.06) %
HSS7 Change difference for rilzabrutinib vs.placebo LS Mean (95% CI) [5]: −3.42 (−6.11, −0.74)
HSS7 Change from baseline LS Mean (SE) [5]: −8.31 (1.00)
HSS7 Postbaseline Mean (SD) [5]: 4.92 (4.89)
HSS7 Postbaseline Mean (SD) (400 mg TID, Week 12, Omalizumab-Naïve Population): 5.23 (4.86)
HSS7 Postbaseline Mean (SD) (400 mg TID, Week 12, Omalizumab-Naïve Population with Outlier Removed from Analysis): 5.23 (4.86)
median reduction in HSS7 at Week 12 (400 mg TID): −7.64
median reduction in HSS7 at Week 12 (400 mg TID, outlier removed): −7.89
HSS7, Max [6]: 8.2
HSS7, Min [6]: 4.0
HSS7 Change from baseline, Max [6]: 0.0
HSS7 Change from baseline, Mean (SD) [6]: −2.00 (2.83)
HSS7 Change from baseline, Median [6]: −2.00
HSS7 Change from baseline, Min [6]: −4.0
HSS7 Change from baseline, Q1 [6]: −4.00
HSS7 Change from baseline, Q3 [6]: 0.00
HSS7 Percent change from baseline, Max [6]: 0.0%
HSS7 Percent change from baseline, Mean (SD) [6]: −25.00 (35.36) percent
HSS7 Percent change from baseline, Median [6]: −25.00%
HSS7 Percent change from baseline, Min [6]: −50.0%
HSS7 Percent change from baseline, Q1 [6]: −50.00%
HSS7 Percent change from baseline, Q3 [6]: 0.00%
HSS7, Mean (SD) [7]: 7.80 (8.76)
HSS7, Median [7]: 7.00
HSS7, Mean (SD) [8]: 6.13 (9.09)
HSS7, Median [8]: 1.40
HSS7, Mean (SD) (400 mg TID, Omalizumab-Naïve Population): 10.00 (5.79)
HSS7, Mean (SD) [9]: 6.08 (2.95)
HSS7, Median [9]: 6.08
HSS7 at Week 12, Mean (ITT Population, 400 mg BID): 7.08
HSS7 at Week 12, Median (ITT Population, 400 mg BID): 6.00
HSS7 change from baseline at Week 12, Mean (ITT Population, 400 mg BID): −7.81
HSS7 change from baseline at Week 12, Median (ITT Population, 400 mg BID): −5.30
HSS7 change from baseline at Week 12, LS Mean (ITT Population, 400 mg BID): −6.78
HSS7 change from baseline at Week 12, LS Mean Diff vs. placebo (ITT Population, 400 mg BID): −1.89
HSS7 at Week 12, Median (ITT Population, 400 mg QPM): 8.75
HSS7 change from baseline at Week 12, Mean (ITT Population, 400 mg QPM): −5.05
HSS7 change from baseline at Week 12, Median (ITT Population, 400 mg QPM): −4.00
HSS7 change from baseline at Week 12, LS Mean (ITT Population, 400 mg QPM): −4.75
HSS7 change from baseline at Week 12, LS Mean Diff vs. placebo (ITT Population, 400 mg QPM): 0.14
HSS7 at Week 12, Mean (ITT Population, 400 mg TID): 4.92
HSS7 at Week 12, Median (ITT Population, 400 mg TID): 3.50
HSS7 change from baseline at Week 12, Mean (ITT Population, 400 mg TID): −9.62
HSS7 change from baseline at Week 12, Median (ITT Population, 400 mg TID): −9.00
HSS7 change from baseline at Week 12, LS Mean (ITT Population, 400 mg TID): −8.31
HSS7 change from baseline at Week 12, LS Mean Diff vs. placebo (ITT Population, 400 mg TID): −3.42
HSS7 at Week 12, Mean [10]: 7.52
HSS7 at Week 12, Median [10]: 7.00
HSS7 change from baseline at Week 12, Mean [10]: −7.09
HSS7 change from baseline at Week 12, Median [10]: −4.50
HSS7 change from baseline at Week 12, LS Mean [10]: −6.56
HSS7 change from baseline at Week 12, LS Mean Diff vs. placebo [10]: −2.20
HSS7 at Week 12, Median [11]: 8.58
HSS7 change from baseline at Week 12, Mean [11]: −4.85
HSS7 change from baseline at Week 12, Median [11]: −4.00
HSS7 change from baseline at Week 12, LS Mean [11]: −4.57
HSS7 change from baseline at Week 12, LS Mean Diff vs. placebo [11]: −0.22
HSS7 at Week 12, Mean [12]: 5.23
HSS7 at Week 12, Median [12]: 4.08
HSS7 change from baseline at Week 12, Mean [12]: −8.77
HSS7 change from baseline at Week 12, Median [12]: −8.00
HSS7 change from baseline at Week 12, LS Mean [12]: −7.89
HSS7 change from baseline at Week 12, LS Mean Diff vs. placebo [12]: −3.54
HSS7 at Week 12, Mean [13]: 7.52
HSS7 at Week 12, Median [13]: 7.00
HSS7 change from baseline at Week 12, Mean [13]: −7.09
HSS7 change from baseline at Week 12, Median [13]: −4.50
HSS7 change from baseline at Week 12, LS Mean [13]: −6.52
HSS7 change from baseline at Week 12, LS Mean Diff vs. placebo [13]: −2.12
HSS7 at Week 12, Median [14]: 8.58
HSS7 change from baseline at Week 12, Mean [14]: −4.85
HSS7 change from baseline at Week 12, Median [14]: −4.00
HSS7 change from baseline at Week 12, LS Mean [14]: −4.49
HSS7 change from baseline at Week 12, LS Mean Diff vs. placebo [14]: −0.09
HSS7 at Week 12, Mean [15]: 5.23
HSS7 at Week 12, Median [15]: 4.08
HSS7 change from baseline at Week 12, Mean [15]: −8.77
HSS7 change from baseline at Week 12, Median [15]: −8.00
HSS7 change from baseline at Week 12, LS Mean [15]: −7.64
